Drawing on US8957062B2, “Substituted cyclopropyl compounds, compositions containing such compounds and methods of treatment” (Merck Sharp & Dohme Corp., priority 2011, dated 2015), this text covers EC50 for 37 compounds.

Read-outs that look alike come from different tables or passages of the source.

This test deals with T1, human GPR119 (Homo sapiens, UniProt Q8TDV5).
T1 sequence (Q8TDV5 1-308 limits assumed): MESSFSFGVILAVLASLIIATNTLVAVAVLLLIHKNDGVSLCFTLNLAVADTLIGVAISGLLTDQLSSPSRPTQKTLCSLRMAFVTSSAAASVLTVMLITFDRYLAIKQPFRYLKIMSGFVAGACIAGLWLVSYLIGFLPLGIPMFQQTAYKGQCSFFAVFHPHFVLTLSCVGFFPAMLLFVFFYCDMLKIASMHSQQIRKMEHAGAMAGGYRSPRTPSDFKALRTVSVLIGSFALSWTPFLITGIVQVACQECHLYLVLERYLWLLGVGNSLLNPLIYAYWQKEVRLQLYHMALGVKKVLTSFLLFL
Nature of the test: Measurement of GPR119 signaling (cAMP assay) in cells stably transfected with human GPR119. The test is classed as cell-based. As to the method:
Measurement of GPR119 Signaling (Cyclic AMP (cAMP) Assay)
The adenylate cyclase assay was constructed following the LANCE™ cAMP Kit (Perkin Elmer, AD0264) instructions.
The reaction was stopped by incubating with the supplied detection buffer containing the europium chelate of the Eu-SA/Biotin-cAMP tracer for 3 hours. The assay was performed in duplicate in a 384 well plate for duplicate plates and fluorescence was measured at 665 nm. Basal activity was determined using a DMSO control and maximum response was defined as cAMP stimulation produced by an internal agonist control. Standard cAMP concentrations were assayed concurrently for conversion of fluorescence signal to cAMP level. The data was analyzed using 4-parameter curve fit in Microsoft Excel.
Measurement of GPR119 Signaling (cAMP Homogenous Time Resolved Fluorescence (HTRF) Assay)
Chinese hamster ovary (CHO) cell lines stably transfected with the permissive guanine nucleotide binding protein alpha 15 (Gα15) and murine GPR119 were maintained in DMEM media containing FBS, penicillin-streptomycin, puromycin, and G418 (geneticin). […] Agonist activation of the GPR119 receptor was measured in receptor transfected cells described above, treated with compounds of this invention, using a commercial homogenous time resolved fluorescence (HTRF) kit for measurement of cAMP (CisBio, Bedford, Mass.). The assay was performed in 96-well half-volume plates (murine) or 384-well plates (human) following the manufacturers instructions. Briefly, suspended cells were incubated with a dose titration of test compound at RT for 60 min, lysed, and incubated with HTRF reagents for an additional 60 min. The plate was read using an Envision multilabel reader (Perkin Elmer) adjusted to read time resolved fluorescence and the cAMP concentrations were extrapolated from a cAMP calibration curve. […] The concentration of test compound required to stimulate a half-maximal response (EC50), and efficacy as compared to an internal agonist control, was determined from a sigmoidal 4-parameter curve fit of the resulting plot of normalized activity versus compound concentration.
Background: Changes in cAMP serve as a functional read-out for many G protein-coupled receptors.

Where [1] appears, read: table column, cAMP stimulation, human GPR119, read-out: GPR119 Human EC50.
[2] abbreviates: stated in the example text, cAMP stimulation, human GPR119, read-out: GPR119 Human EC50.
The mark [3] stands for this setting: cAMP stimulation, read-out: GPR119 HumC EC50.

As usually defined, the EC50 is the concentration giving half of the maximal effect. With `Cc1nc(C#N)cc(OCC[C@@H]2C[C@@H]2C2CCN(C(=O)OCC(C)C)CC2)n1` [Example 48], the EC50 under setting [1] was determined as 1 nM.

Consider `Cc1nc(C#N)cc(OCC[C@@H]2C[C@@H]2C2CCN(C(=O)OC3(C)CC3)CC2)n1` [Example 49], for which, under setting [1], the EC50 is 2 nM. Regarding `Cc1nnc(-c2ccc(OCC[C@@H]3C[C@@H]3C3CCN(C(=O)OC(C)(C)C)CC3)cc2F)o1` [Example 50], the EC50 (unit inferred, read-out: GPR119 Human EC50) was determined as 1.8 nM.

With `CC(C)OC(=O)N1CCC([C@H]2C[C@H]2CCOc2cc(F)c(C(=O)C3CC3)c(F)c2)CC1` [Example 51], the EC50 under setting [2] is 0.8 nM. `CC(C)(C)OC(=O)N1CCC([C@H]2C[C@H]2CCOc2cc(F)c(C(=O)C3CC3)c(F)c2)CC1` [Example 52]: the EC50 under setting [1] turned out to be 0.2 nM. Still for that read-out and setting: with `O=C(c1c(F)cc(OCC[C@@H]2C[C@@H]2C2CCN(C(=O)OCc3ccccc3)CC2)cc1F)C1CC1` [Example 53] the figure was 18 nM. In the case of `CC1(OC(=O)N2CCC([C@H]3C[C@H]3CCOc3cc(F)c(C(=O)C4CC4)c(F)c3)CC2)CC1` [Example 54], the EC50 under setting [1] was 0.7 nM. The same measure, in the same setting: the figure for `CCOC(=O)N1CCC([C@H]2C[C@H]2CCOc2cc(F)c(C(=O)C3CC3)c(F)c2)CC1` [Example 55] is 1.1 nM. For the compound `CC1(OC(=O)N2CCC([C@H]3C[C@H]3CCOc3ccc(CC(=O)N4CCCC4)cc3)CC2)CC1` [Example 56], under setting [2], the EC50 is 4.7 nM.

Turning to `CC1(OC(=O)N2CCC([C@H]3C[C@H]3CCOc3ccc(CC(=O)N4CCC4)cc3)CC2)CC1` [Example 57], under setting [2], the EC50 was 5.9 nM.

On to `CC(C)OC(=O)N1CCC([C@H]2C[C@H]2CCOc2cc(F)c(C(=O)NC3CC3)c(F)c2)CC1` [Example 58], for which the EC50 under setting [2] was 3.5 nM. On to `CC1(OC(=O)N2CCC([C@H]3C[C@H]3CCOc3ccc(CC(=O)N4CCC4)c(F)c3)CC2)CC1` [Example 59, 1-methylcyclopropyl 4-[(1R,2S)-2-(2-{4-[2-(azetidin-1-yl)-2-oxoethyl]-3-fluorophenoxy}ethyl)cyclopropyl]piperidine-1-carboxylate], for which the EC50 under setting [2] came to 3.3 nM. On the same count and under the same terms, the figure for `Cc1cc(OCC[C@@H]2C[C@@H]2C2CCN(C(=O)OC3(C)CC3)CC2)ccc1CC(=O)N1CCC1` [Example 60, 1-methylcyclopropyl-4-((1R,2S)-2-{2-[4-(2-azetidin-1-yl-2-oxoethyl)-3-methylphenoxy]ethyl}cyclopropyl)piperidine-1-carboxylate] is 5.4 nM; for `O=C(Cc1ccc(OCC[C@@H]2C[C@@H]2C2CCN(C(=O)OCC3CC3)CC2)cc1F)N1CCC1` [Example 61, cyclopropylmethyl-4-((1R,2S)-2-{2-[4-(2-azetidin-1-yl-2-oxoethyl)-3-fluorophenoxy]ethyl}cyclopropyl)piperidine-1-carboxylate] it is 2 nM. For the compound `CN(C)C(=O)Cc1cc(F)c(OCC[C@@H]2C[C@@H]2C2CCN(C(=O)OC3(C)CC3)CC2)cc1F` [Example 62, 1-methylcyclopropyl 4-[(1R,2S)-2-(2-{4-[2-(dimethylamino)-2-oxoethyl]-2,5-difluorophenoxy}ethyl)cyclopropyl]piperidine-1-carboxylate], the EC50 (stated in the example text without 'GPR119', read-out: Human EC50) is 2.2 nM. For the compound `CC1(OC(=O)N2CCC([C@H]3C[C@H]3CCOc3ccc(CC(=O)N4CC(F)C4)c(F)c3)CC2)CC1` [Example 63], the EC50 under setting [3] turned out to be 0.88 nM. Still for that read-out and setting: with `CC1(O)CN(C(=O)Cc2ccc(OCC[C@@H]3C[C@@H]3C3CCN(C(=O)OC4(C)CC4)CC3)cc2F)C1` [Example 64] the figure was 9.5 nM. As for `CC1(OC(=O)N2CCC([C@H]3C[C@H]3CCOc3ccc(CC(=O)N4CC(F)(F)C4)c(F)c3)CC2)CC1` [Example 65], the EC50 under setting [3] amounted to 0.49 nM.

With `CN(C)C(=O)Cc1ccc(OCC[C@@H]2C[C@@H]2C2CCN(C(=O)OC3(C)CC3)CC2)cc1F` [Example 66], under setting [3], the EC50 came to 2.4 nM. `CC1(OC(=O)N2CCC([C@H]3C[C@H]3CCOc3ccc(CC(=O)N4CCOCC4)c(F)c3)CC2)CC1` [Example 67]: under setting [3], the half-maximal effective concentration (EC50) stood at 8.5 nM.

As for `CC1(OC(=O)N2CCC([C@H]3C[C@H]3CCOc3ccc(CC(=O)N4CCC[C@@H]4C(F)(F)F)c(F)c3)CC2)CC1` [Example 68], under setting [3], the 50% effective concentration (EC50) came to 5.1 nM. Same read-out and setting: with `CC1(OC(=O)N2CCC([C@H]3C[C@H]3CCOc3ccc(CC(=O)N4CCC4)c(Cl)c3)CC2)CC1` [Example 69] the figure was 1.5 nM. Still for that read-out and setting: with `CC1(OC(=O)N2CCC([C@H]3C[C@H]3CCOc3ccc(CC(=O)N4CCC4)c(C#N)c3)CC2)CC1` [Example 70] the figure was 2.7 nM; with `O=C(Cc1ccc(OCC[C@@H]2C[C@@H]2C2CCN(C(=O)OC3CCC3)CC2)cc1F)N1CCC1` [Example 71], 1.4 nM. For `CC1(COC(=O)N2CCC([C@H]3C[C@H]3CCOc3ccc(CC(=O)N4CCC4)c(F)c3)CC2)CC1` [Example 72], the EC50 under setting [3] is 3.6 nM. On the same count and under the same terms, the figure for `O=C(Cc1ccc(OCC[C@@H]2C[C@@H]2C2CCN(C(=O)OCC3CCC3)CC2)cc1F)N1CCC1` [Example 73] is 2.2 nM. Consider `CCC1(OC(=O)N2CCC([C@H]3C[C@H]3CCOc3ccc(CC(=O)N4CCC4)c(F)c3)CC2)CC1` [Example 74], for which, under setting [3], the EC50 is 2.7 nM. Still for that read-out and setting: with `CC(C)c1noc(N2CCC([C@H]3C[C@H]3CCOc3cc(F)c(CC(=O)N(C)C)cc3F)CC2)n1` [Example 75] the figure was 0.6 nM. Consider `CC(C)(C)NC(=O)N1CCC([C@H]2C[C@H]2CCOc2ccc(-n3cnnn3)cc2)CC1` [Example 76, N-(tert-butyl)-4-((1R,2S)-2-(2-(4-(1H-tetrazol-1-yl)phenoxy)ethyl)cyclopropyl)piperidine-1-carboxamide], for which the EC50 under setting [2] turned out to be 14.7 nM.

For `O=C(CC1CCCCC1)N1CCC([C@H]2C[C@H]2CCOc2ccc(-n3cnnn3)cc2)CC1` [Example 77, 1-(cyclohexylacetyl)-4-((1R,2S)-2-{2-[4-(1H-tetrazol-1-yl)phenoxy]ethyl}cyclopropyl)piperidine], the EC50 under setting [2] was 11.8 nM. In the case of `O=C(CCC(F)(F)F)N1CCC([C@H]2C[C@H]2CCOc2ccc(-n3cnnn3)cc2)CC1` [Example 78], under setting [1], the EC50 was determined as 8.5 nM. Take `CC(C)CC(=O)N1CCC([C@H]2C[C@H]2CCOc2ccc(-n3cnnn3)cc2)CC1` [Example 79]: the EC50 under setting [1] is 7.7 nM.

Consider `CC(C)(CC(=O)N1CCC([C@H]2C[C@H]2CCOc2ccc(-n3cnnn3)cc2)CC1)C1CC1` [Example 80], for which the EC50 under setting [1] came out at 4 nM.

With `O=C(CC1CCC1)N1CCC([C@H]2C[C@H]2CCOc2ccc(-n3cnnn3)cc2)CC1` [Example 81], the EC50 under setting [1] was found to be 15 nM.

As for `O=C(CC1CCCC1)N1CCC([C@H]2C[C@H]2CCOc2ccc(-n3cnnn3)cc2)CC1` [Example 82], the EC50 under setting [1] stood at 16 nM. The same measure, in the same setting: the figure for `O=C(CC1(c2ccccc2)CCC1)N1CCC([C@H]2C[C@H]2CCOc2ccc(-n3cnnn3)cc2)CC1` [Example 83] is 15 nM; for `O=C(CC1CC2C=CC1C2)N1CCC([C@H]2C[C@H]2CCOc2ccc(-n3cnnn3)cc2)CC1` (stereo partly shown) [Example 84] it is 3.7 nM.
